From article PMC8847695 (Frontiers in Chemistry, 2022)
Entries after “also recorded” stand apart in the source; their conditions may differ.

Legend:
AAK1 = AAK1 (Homo sapiens, UniProt Q2M2I8); test: ITC validation, AAK1; type: binding; conditions: for KD / Kd: ITC; for LE: LE=1/N⋅1.4⋅−log(KD); for LE / LELP: AAK1; for LELP: LELP= logP/LE
Description: (§1) The protein was buffer exchanged into 50 mM HEPES, 100 mM NaCl, 2 mM MgCl2, and 1 mM TCEP at pH 7.4. The protein was concentrated to 50–100 µM, and DMSO was added to a final concentration of 5% (^V/V). The fragments were dissolved in DMSO to yield a 100 mM stock solution, which was further diluted with buffer to yield a 5 mM solution also containing 5% (^V/V) DMSO. A MicroCal iTC200 (Malvern) instrument was used with the measuring cell set to 25°C, while the cooling jacket was set to 15°C. After a 120 s initial delay following temperature equilibration, a first injection with 0.5 µl over 2 s was done. […] The measurement was conducted using a needle stirring speed of 1,000 rpm and a reference heat rate of 10 μcal/s. Experiments were aborted, when the measuring cell was unable to reach a heat rate greater than 9 μcal/s during equilibration. Affinities were averaged from duplicates.

[1] = GSH stability assay (HPLC); type: physicochemical; conditions: t1/2 > 20 h defined as sufficiently stable
Description: A 500 µM fragment solution in PBS buffer pH 7.4, 10% acetonitrile and 200 µM indoprofen as an internal standard, was added to 10 mM GSH solution in a 1:2 ratio. The reaction temperature was 40°C. […] The reaction of fragments with GSH was determined by measuring the decreasing area under the curve (AUC) of the compound relative to the internal standard indoprofen. The gradient was chosen depending on the polarity of fragments to be either one of the following: […]

CAMK1G = target: T1, CAMK1G (Homo sapiens, UniProt Q96NX5); test: ITC validation, CAMK1G; type: binding; conditions: for Kd: ITC, 25°C, 5% DMSO, pH 7.4, duplicates, 7405: fragment concentration reduced to 2 mM
T1 construct: made in house; host or cells: E. coli BL21 (DE3) pLysS
T1 sequence (Q96NX5 1-320): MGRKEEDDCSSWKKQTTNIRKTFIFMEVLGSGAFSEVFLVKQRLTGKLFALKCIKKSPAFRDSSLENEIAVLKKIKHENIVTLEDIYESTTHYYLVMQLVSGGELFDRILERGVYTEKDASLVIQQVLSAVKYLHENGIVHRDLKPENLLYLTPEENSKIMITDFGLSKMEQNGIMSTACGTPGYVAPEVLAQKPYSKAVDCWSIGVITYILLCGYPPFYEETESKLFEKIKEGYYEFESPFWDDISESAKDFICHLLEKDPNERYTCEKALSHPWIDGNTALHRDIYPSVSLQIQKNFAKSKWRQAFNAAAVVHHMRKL
Description: as §1

IDO1 = target: T2, IDO1 (Homo sapiens, UniProt P14902); test: ITC validation, IDO1; type: binding
T2 construct: His-tag of pET15b with TEV site (thrombin site replaced) (cleaved yes); made in house; host or cells: E. coli Rosetta 2 (DE3) pLysS
T2 sequence (P14902 whole entry): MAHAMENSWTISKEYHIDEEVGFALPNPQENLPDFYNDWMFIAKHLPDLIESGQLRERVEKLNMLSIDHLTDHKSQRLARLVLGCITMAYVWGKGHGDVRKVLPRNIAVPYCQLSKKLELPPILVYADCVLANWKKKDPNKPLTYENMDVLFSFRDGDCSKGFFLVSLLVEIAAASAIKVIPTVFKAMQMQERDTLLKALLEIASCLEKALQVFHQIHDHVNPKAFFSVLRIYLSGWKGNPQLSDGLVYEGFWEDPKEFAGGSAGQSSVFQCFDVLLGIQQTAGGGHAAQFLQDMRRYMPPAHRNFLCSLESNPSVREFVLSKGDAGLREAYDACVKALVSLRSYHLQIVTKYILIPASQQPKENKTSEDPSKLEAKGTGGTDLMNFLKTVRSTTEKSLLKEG
Description: (§2) The protein was buffer exchanged into 50 mM HEPES, 100 mM NaCl, 2 mM MgCl2, and 1 mM TCEP at pH 7.4. The protein was concentrated to 50–100 µM, and DMSO was added to a final concentration of 5% (^V/V). The fragments were dissolved in DMSO to yield a 100 mM stock solution, which was further diluted with buffer to yield a 5 mM solution also containing 5% (^V/V) DMSO. A MicroCal iTC200 (Malvern) instrument was used with the measuring cell set to 25°C, while the cooling jacket was set to 15°C. After a 120 s initial delay following temperature equilibration, a first injection with 0.5 µl over 2 s was done. Nineteen injections with 2 µl over 4 s were performed every 180 s ([Ruhmann et al., 2015]). The measurement was conducted using a needle stirring speed of 1,000 rpm and a reference heat rate of 10 μcal/s. Experiments were aborted, when the measuring cell was unable to reach a heat rate greater than 9 μcal/s during equilibration. Affinities were averaged from duplicates.

CAMK1G (1-320) = target: T3, CAMK1G (1-320) (Homo sapiens, UniProt Q96NX5); test: STD-NMR fragment screening, CAMK1G; type: binding; conditions: for STD-NMR hit: 1 mM fragment, 20 µM protein, hit if peak in difference spectrum three times higher than local noise; for CAMK1G (STD-NMR hit flag): 1 = hit, 0 = no hit
T3 construct: made in house; host or cells: E. coli BL21 (DE3) pLysS
T3 sequence (Q96NX5 1-320): as the sequence (Q96NX5 1-320) above
In short: (§3)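 Saturation-transfer difference NMR was run at 25°C and 700 MHz with 20 µM protein, two fragments at 1 mM each, and 10% DMSO-d6. On-resonance saturation was at 0.5–0.6 ppm and off-resonance at 40 ppm, with a 3 s Gaussian-pulse train. A hit required a difference-spectrum peak at least three times the local noise.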

AAK1 (121-471) = AAK1 (121-471) (Homo sapiens, UniProt Q2M2I8); test: STD-NMR fragment screening, AAK1; type: binding; conditions: for STD-NMR hit: 1 mM fragment, 20 µM protein, hit if peak in difference spectrum three times higher than local noise; for AAK1 (STD-NMR hit flag): 1 = hit, 0 = no hit
Sequence of AAK1 (121-471) (Q2M2I8 46-315 limits assumed): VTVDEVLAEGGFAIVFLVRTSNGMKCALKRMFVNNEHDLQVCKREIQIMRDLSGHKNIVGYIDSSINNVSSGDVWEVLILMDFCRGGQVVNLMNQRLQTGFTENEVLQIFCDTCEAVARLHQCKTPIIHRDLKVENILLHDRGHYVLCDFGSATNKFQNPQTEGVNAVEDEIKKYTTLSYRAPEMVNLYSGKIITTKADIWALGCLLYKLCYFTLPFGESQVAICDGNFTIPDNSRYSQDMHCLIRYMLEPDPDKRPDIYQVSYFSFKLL
In short: as §3

IDO1 (1-435) = target: T4, IDO1 (1-435) (Homo sapiens, UniProt P14902); test: STD-NMR fragment screening, IDO1; type: binding; conditions: for STD-NMR hit: 1 mM fragment, 20 µM protein, hit if peak in difference spectrum three times higher than local noise; for IDO1 (STD-NMR hit flag): 1 = hit, 0 = no hit
T4 construct: His-tag of pET15b with TEV site (thrombin site replaced) (cleaved yes); made in house; host or cells: E. coli Rosetta 2 (DE3) pLysS
T4 sequence (P14902 whole entry, the tested form may be a part): as the sequence (P14902 whole entry) above
In short: as §3

DOT1L (1-416) = target: T5, DOT1L (1-416) (Homo sapiens, UniProt Q8TEK3); test: STD-NMR fragment screening, DOT1L; type: binding; conditions: for STD-NMR hit: 1 mM fragment, 20 µM protein, hit if peak in difference spectrum three times higher than local noise; for DOT1L (STD-NMR hit flag): 1 = hit, 0 = no hit
T5 construct: made in house; host or cells: E. coli BL21 (DE3) pLysS
T5 sequence (Q8TEK3 1-416): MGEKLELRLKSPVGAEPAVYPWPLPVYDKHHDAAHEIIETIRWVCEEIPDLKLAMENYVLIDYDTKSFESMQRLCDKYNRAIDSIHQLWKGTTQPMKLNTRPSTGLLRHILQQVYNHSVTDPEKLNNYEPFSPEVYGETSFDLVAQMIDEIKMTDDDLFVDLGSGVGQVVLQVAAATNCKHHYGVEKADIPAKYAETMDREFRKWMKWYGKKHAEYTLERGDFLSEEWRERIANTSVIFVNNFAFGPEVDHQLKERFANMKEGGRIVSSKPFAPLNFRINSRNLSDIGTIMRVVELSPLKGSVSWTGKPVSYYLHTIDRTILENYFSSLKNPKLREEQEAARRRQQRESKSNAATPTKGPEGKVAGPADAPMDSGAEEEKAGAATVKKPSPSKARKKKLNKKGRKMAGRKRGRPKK
In short: as §3

DOT1L = target: T6, DOT1L (Homo sapiens, UniProt Q8TEK3); test: ITC validation, DOT1L; type: binding; conditions: 25°C, detection level >1 mM
T6 construct: made in house; host or cells: E. coli BL21 (DE3) pLysS
T6 sequence (Q8TEK3 1-416): as above
Description: as §1

JNK3 = JNK3 (Homo sapiens, UniProt P53779); test: ITC, JNK3; type: binding
Sequence of JNK3 (P53779 whole entry, species assumed): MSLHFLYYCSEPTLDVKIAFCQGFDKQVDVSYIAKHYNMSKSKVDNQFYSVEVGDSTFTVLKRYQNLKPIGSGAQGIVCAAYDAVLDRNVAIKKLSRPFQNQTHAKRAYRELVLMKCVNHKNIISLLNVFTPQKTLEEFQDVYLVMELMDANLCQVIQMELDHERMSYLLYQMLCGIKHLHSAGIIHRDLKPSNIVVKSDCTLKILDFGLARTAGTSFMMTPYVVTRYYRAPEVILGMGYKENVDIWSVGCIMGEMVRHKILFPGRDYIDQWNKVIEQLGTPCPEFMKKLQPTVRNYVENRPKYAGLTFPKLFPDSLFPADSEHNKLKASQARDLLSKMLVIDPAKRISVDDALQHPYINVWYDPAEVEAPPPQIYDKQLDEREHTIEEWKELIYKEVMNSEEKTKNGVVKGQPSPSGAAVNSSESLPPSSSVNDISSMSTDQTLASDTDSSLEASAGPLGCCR
Description: as §2

JNK2 = JNK2 (Homo sapiens, UniProt P45984); test: ITC, JNK2; type: binding
Sequence of JNK2 (P45984 whole entry, species assumed): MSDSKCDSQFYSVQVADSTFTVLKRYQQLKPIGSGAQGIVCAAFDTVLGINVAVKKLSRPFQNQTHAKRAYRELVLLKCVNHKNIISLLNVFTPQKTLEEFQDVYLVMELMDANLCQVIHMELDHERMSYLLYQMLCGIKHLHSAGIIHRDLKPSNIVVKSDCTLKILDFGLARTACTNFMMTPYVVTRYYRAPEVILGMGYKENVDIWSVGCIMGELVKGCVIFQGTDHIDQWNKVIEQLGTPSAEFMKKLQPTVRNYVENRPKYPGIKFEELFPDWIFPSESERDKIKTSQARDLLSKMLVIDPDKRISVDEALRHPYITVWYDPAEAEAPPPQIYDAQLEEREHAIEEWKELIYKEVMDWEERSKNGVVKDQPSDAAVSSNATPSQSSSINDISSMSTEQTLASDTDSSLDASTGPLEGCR
Description: as §2

[2] = 25°C, 5% DMSO, pH 7.4, duplicates
[3] = ITC, 25°C, 5% DMSO, pH 7.4, duplicates

Sequence of AAK1 (Q2M2I8 46-315 limits assumed): as the sequence (Q2M2I8 46-315 limits assumed) above

Kd (AAK1; [2]) [µM] | CAMK1G (STD-NMR hit flag) (CAMK1G (1-320)) | AAK1 (STD-NMR hit flag) (AAK1 (121-471)) | IDO1 (STD-NMR hit flag) (IDO1 (1-435)) | DOT1L (STD-NMR hit flag) (DOT1L (1-416)) | Structure (SMILES) | also measured
50 | – | – | – | – | Clc1ccnc2cc[nH]c12 [Fragment A1] | –
90 | – | – | – | – | Nc1c(Cl)ccc(O)c1Cl [Fragment 0471] | LE (AAK1): 0.57; LELP (AAK1): 4.03
180 | – | – | – | – | Oc1nc2nc(Cl)ccc2[nH]1 [Fragment 0474] | LE (AAK1): 0.48; LELP (AAK1): 1.90; stability with GSH (in words) [1]: sufficiently stable
170 | – | – | – | – | Clc1cccc2cc[nH]c12 [Fragment A6] | –
60 | – | – | – | – | Clc1nccc2cc[nH]c12 [Fragment A2] | –
6 | – | – | – | – | Clc1ncnc2cc[nH]c12 [Fragment 9595, 4-chloro-5H-pyrrolo[3,2-d]pyrimidine] | Kd (JNK3): 130 µM; stability with GSH (in words) [1]: sufficiently stable; Kd (JNK2): 67 µM; STD-NMR hit (AAK1 (121-471)): binds
– | 0 | 0 | 0 | 0 | O=C(O)c1cc(Cl)c[nH]1 [Fragment B02291221] | –
– | 1 | 0 | 0 | 0 | O=c1[nH]cc(Cl)cc1[N+](=O)[O-] [Fragment B02290460] | –
– | 0 | 0 | 0 | 0 | Brc1cnc2[nH]nnc2c1 [Fragment B02290482] | –
– | 1 | 0 | 0 | 0 | O=C1CCS(=O)(=O)c2ccc(Cl)cc21 [Fragment B02291253] | –

The remaining lines, values behind:

Structure (SMILES) | Kd (AAK1; [2]) [µM] | CAMK1G (STD-NMR hit flag) (CAMK1G (1-320)) | AAK1 (STD-NMR hit flag) (AAK1 (121-471)) | IDO1 (STD-NMR hit flag) (IDO1 (1-435)) | DOT1L (STD-NMR hit flag) (DOT1L (1-416)) | also measured
Clc1ncnc2ccsc12 [Fragment A5] | – | – | – | – | – | KD (AAK1; [2]): completely abolished the affinity
Clc1ncnc2ccoc12 [Fragment A4] | 302 | – | – | – | – | –
c1cc2cc[nH]c2cn1 [Fragment A3] | – | – | – | – | – | KD (AAK1; [2]): completely abolished the affinity; Kd (AAK1; SAR analogs of 9595): > 1000 µM
Nc1ccc2[nH]cnc2c1Br [Fragment 7409] | 6 | – | – | – | – | LE (AAK1): 0.67; LELP (AAK1): 2.86; stability with GSH (in words) [1]: sufficiently stable; LE (CAMK1G; LE=1/N⋅1.4⋅−log(KD), CAMK1G): over 0.4
Cn1c(=O)c2[nH]c(Cl)nc2n(C)c1=O [Fragment 1216] | – | – | – | – | – | Kd (IDO1; [3]): 390 µM; LE (IDO1; LE=1/N⋅1.4⋅−log(KD), IDO1): 0.34; LELP (IDO1; LELP= logP/LE, IDO1): −1.92; stability with GSH (in words) [1]: sufficiently stable
Nc1c(Cl)ccc2nonc12 [Fragment 1217] | – | – | – | – | – | stability with GSH (in words) [1]: sufficiently stable
Cc1n[nH]c(C)c1I [Fragment 0459] | 18 | – | – | – | – | KD (IDO1; [3]): too low to derive reliable affinity determination; Kd (IDO1; [3]): > 1000 µM; STD-NMR hit (CAMK1G (1-320)): STD hit; STD-NMR hit (AAK1 (121-471)): STD hit; STD-NMR hit (IDO1 (1-435)): STD hit; STD-NMR hit (DOT1L (1-416)): STD hit; ITC validation (KD) (DOT1L): None of these could be validated with ITC; also recorded: beyond the limits of ITC; Kd (CAMK1G): 190 µM
Brc1cnc2cnccn12 [Fragment 0120] | – | – | – | – | – | STD-NMR hit (CAMK1G (1-320)): fragment hits; ITC validation (KD) (DOT1L): None of these could be validated with ITC
Nc1ncnc(Cl)c1Cl [Fragment B02289621] | – | 1 | 1 | 0 | 0 | –
O=C(O)c1ncccc1Br [Fragment B02289614] | – | 0 | 0 | 0 | 0 | –
Brc1cnn(-c2nnn[nH]2)c1 [Fragment B02290113] | – | 0 | 1 | 1 | 0 | –
Cc1c(Cl)cnc(N)c1Cl [Fragment 7405] | – | – | – | – | – | ITC validation (KD) (DOT1L): None of these could be validated with ITC; Kd (CAMK1G): 130 µM
Cc1n[nH]c(C(=O)O)c1Br [Fragment B02294483] | – | 0 | 1 | 0 | 0 | –
Cn1c(Cl)c(C#N)c(=O)n(C)c1=O [Fragment 1234] | – | – | – | – | – | STD-NMR hit (CAMK1G (1-320)): pan-target hit; STD-NMR hit (AAK1 (121-471)): pan-target hit; STD-NMR hit (IDO1 (1-435)): pan-target hit; STD-NMR hit (DOT1L (1-416)): pan-target hit
O=C(O)c1c(I)ccnc1F [Fragment B02290658] | – | 0 | 0 | 0 | 0 | –
